Measurements: US4440770A, “Diuretic, hypotensive and antiedemic quinoline oximes” (Mochida Seiyaku Kabushiki Kaisha, priority 1980, dated 1984)

What was measured:
[1] = Properties of respective derivatives (solubility); format: physicochemical
rats = assay: Diuretic effect in rats; format: in vivo, Wister strain male rats; conditions: Rattus norvegicus, po, 5 h, urine volume up to 5 hours, % of control; for response vs control in vivo at 10 mg/kg: dosage 10 mg/kg; for response vs control in vivo at 20 mg/kg: dosage 20 mg/kg; for response vs control in vivo at 2.5 mg/kg: dosage 2.5 mg/kg; for response vs control in vivo at 5 mg/kg: dosage 5 mg/kg; for response vs control in vivo at 50 mg/kg: dosage 50 mg/kg
Method: Wister strain male rats weighing about 200 g were starved overnight and each compound of this invention suspended in 25 ml/kg of physiological saline were administered orally to the 5 animals in each group, and the diuretic effect up to 5 hours after the administration was measured. The diuretic effect is expressed as the average urine volume (%) of the treated group divided by that of the control group.

[2] = system: Carrageenin-Induced Foot Edema; assay: Inhibition for carrageenin-induced foot edema in rats; format: in vivo, Wister strain male rats; conditions: 1 hour before carrageenin, paw volume 3 hours after, probit method; for ED30: Rattus norvegicus, po, read-out: ED30 (dosage for 30% inhibition of edema)
Method: 10 Wister strain male rats weighing about 120 g were used in each group. Each compound of this invention was suspended in a 5% aqueous arabic gum solution and administered orally to the animals. One hour after the administration, 0.1 ml of a 1% solution of carrageenin in physiological saline as a phlogistic agent was subcutaneously injected into the right hind paw of the rats which had been shaven previously. The volume of the right hind paw was measured before the administration of the phlogistic agent and 3 hours after the administration. The intensity of edema expressed as percent increase in the foot volume was calculated from the […] (1) and the percent inhibition of edema was calculated from the equation (2). [formula]
The effective dosage of each compound for inhibiting edema was expressed as ED30 (mg/kg) by calculating the dosage for 30% inhibition from the percent inhibition of edema according to the probit method.

[3] = Acute oral toxicity in mice; conditions: mouse, in vivo, mortality 7 days after administration
Method: 10 ddY Strain male mice weighing about 20 g were used in each group. Each compound of this invention was suspended in a 5% aqueous gum arabic solution and administered orally. The mortality rate (%) was determined from the number of dead animals 7 days after the administration, and the dosage corresponding to 50% mortality was calculated and expressed as LD50 (mg/kg).

Row | Compound | Solubility in ethanol and dichloromethane [1] | Solubility in water and hexane [1] | response vs control in vivo at 10 mg/kg (rats) [%] | response vs control in vivo at 0.5 mg/kg (rats; dosage .5 mg/kg (so in the source)) [%] | ED30 [2] [mg/kg] | LD50 at 168 h [3] [mg/kg] | response vs control in vivo at 20 mg/kg (rats) [%] | response vs control in vivo at 2.5 mg/kg (rats) [%] | response vs control in vivo at 5 mg/kg (rats) [%] | Solubility in methanol, acetone and chloroform [1] | response vs control in vivo at 50 mg/kg (rats) [%] | response vs control in vivo at 25 mg/kg (rats; dosage 25 mg/kg) [%] | ED30 (dosage for 30% inhibition of edema) ([2]; oral) [mg/kg]
1 | COC(=O)N1CCC(=NO)c2cc(Br)ccc21 [Compound XI, 6-Bromo-4-oximino-1-methoxycarbonyl-1,2,3,4-tetrahydroquinoline] | soluble | Sparingly soluble | 293 | 152 | 83 | > 5000 |  |  |  |  |  |  | 
2 | CCOC(=O)N1CCC(=NO)c2cc(F)ccc21 [Compound XII, 6-Fluoro-4-oximino-1-ethoxycarbonyl-1,2,3,4-tetrahydroquinoline] | soluble | Sparingly soluble | 180 |  | 86 | > 5000 | 285 |  |  |  |  |  | 
3 | CC(=O)N1CCC(=NO)c2cc(Br)ccc21 [XIV, 6-Bromo-4-oximino-1-acetyl-1,2,3,4-tetrahydroquinoline] | soluble | Sparingly soluble |  |  | 182 | > 5000 | 234 |  |  |  |  |  | 
4 | CCC(=O)N1CCC(=NO)c2cc(F)ccc21 [Compound XV, 6-Fluoro-4-oximino-1-propionyl-1,2,3,4-tetrahydroquinoline] | soluble | Sparingly soluble | 425 |  | 9.3 | 3440 |  | 209 | 347 |  |  |  | 
5 | CCCCC(=O)N1CCC(=NO)c2cc(Cl)ccc21 [Compound V, 6-Chloro-4-oximino-1-valeryl-1,2,3,4-tetrahydroquinoline] |  | Sparingly soluble |  |  | 140 | > 5000 |  |  |  | easily soluble | 209 |  | 
6 | CCC(=O)N1CCC(=NO)c2cc(Br)ccc21 [XVI, 6-Bromo-4-oximino-1-propionyl-1,2,3,4-tetrahydroquinoline] | soluble | Sparingly soluble | 380 |  | 16 | 4710 |  |  | 243 |  |  |  | 
7 | CC(C)CC(=O)N1CCC(=NO)c2cc(Cl)ccc21 [Compound VI, 6-Chloro-4-oximino-1-isovaleryl-1,2,3,4-tetrahydroquinoline] |  | Sparingly soluble |  |  | 105 | > 5000 |  |  |  | easily soluble | 196 |  | 
8 | CN(C)C(=O)N1CCC(=NO)c2cc(Br)ccc21 [XXIII, 6-Bromo-4-oximino-1-dimethylcarbamoyl-1,2,3,4-tetrahydroquinoline] | soluble | Sparingly soluble |  |  | 51 | > 5000 |  |  |  |  | 200 |  | 
9 | CN(C)C(=O)N1CCC(=NO)c2cc(F)ccc21 [XXI, 6-Fluoro-4-oximino-1-dimethylcarbamoyl-1,2,3,4-tetrahydroquinoline] | soluble | Sparingly soluble | 128 |  | 141 | > 5000 | 209 |  |  |  |  |  | 
10 | CN(C)C(=O)N1CCC(=NO)c2cc(Cl)ccc21 [XXII, 6-Chloro-4-oximino-1-dimethylcarbamoyl-1,2,3,4-tetrahydroquinoline] | soluble | Sparingly soluble | 198 |  | 34 | > 5000 | 263 |  |  |  |  |  | 
11 | CNC(=O)N1CCC(=NO)c2cc(Cl)ccc21 [XIX, 6-Chloro-4-oximino-1-methylcarbamoyl-1,2,3,4-tetrahydroquinoline] | soluble | Sparingly soluble |  |  | 62 | > 5000 |  |  |  |  | 180 |  | 
12 | CNC(=O)N1CCC(=NO)c2cc(Br)ccc21 [XX, 6-Bromo-4-oximino-1-methylcarbamoyl-1,2,3,4-tetrahydroquinoline] | soluble | Sparingly soluble |  |  | 95 | > 5000 |  |  |  |  | 197 |  | 
13 | CC(C)C(=O)N1CCC(=NO)c2cc(Cl)ccc21 [Compound IV, 6-Chloro-4-oximino-1-isobutyryl-1,2,3,4-tetrahydroquinoline] |  | Sparingly soluble |  |  | 87 | > 5000 |  |  |  | easily soluble | 211 | 119 | 
14 | O=C(C=Cc1ccccc1)N1CCC(=NO)c2cc(Cl)ccc21 [Compound VIII, 6-Chloro-4-oximino-1-cinnamoyl-1,2,3,4-tetrahydroquinoline] |  | Sparingly soluble |  |  | 44 | > 5000 |  |  |  | easily soluble | 228 |  | 
15 | O=C(Cc1ccccc1)N1CCC(=NO)c2cc(Cl)ccc21 [Compound VII, 6-Chloro-4-oximino-1-phenylacetyl-1,2,3,4-tetrahydroquinoline] |  | Sparingly soluble |  |  | 140 | > 5000 |  |  |  | easily soluble | 202 |  | 
16 | NS(=O)(=O)c1cc(C(=O)O)c(NCc2ccco2)cc1Cl [Furosemide, reference compound] |  |  |  |  |  |  |  |  | 133 |  |  |  | 
17 | COC(=O)N1CCC(=NO)c2cc(Cl)ccc21 [Compound X, 6-Chloro-4-oximino-1-methoxycarbonyl-1,2,3,4-tetrahydroquinoline] | soluble | Sparingly soluble | 371 |  | 14 | 4470 |  | 188 | 306 |  |  |  | 
18 | CC(=O)N1CCC(=NO)c2cc(Cl)ccc21 [Compound I, 6-Chloro-4-oximino-1-acetyl-1,2,3,4-tetrahydroquinoline] |  | Sparingly soluble | 186 |  | 39 | > 5000 | 260 |  | 131 | easily soluble |  |  | 
19 | CCCCC1C(=O)N(c2ccccc2)N(c2ccccc2)C1=O [Phenylbutazone, reference compound] |  |  |  |  | 65 |  |  |  |  |  |  |  | 63
20 | O=C(C=Cc1ccccc1)N1CCC(=NO)c2cc(Br)ccc21 [XVIII, 6-Bromo-4-oximino-1-cinnamoyl-1,2,3,4-tetrahydroquinoline] | soluble | Sparingly soluble |  |  | 133 | > 5000 |  |  |  |  | 203 |  | 
21 | CC(C)C(=O)N1CCC(=NO)c2cc(Br)ccc21 [XVII, 6-Bromo-4-oximino-1-isobutyryl-1,2,3,4-tetrahydroquinoline] | soluble | Sparingly soluble |  |  | 102 | > 5000 |  |  |  |  | 173 |  | 
